Assays:
[1] = system: HCV replicon RNA (GenBank Accession No. AJ242654); test: HCV Replicon Assay (replicon RNA reduction and/or Fluc reporter signal); type: cell-based, Hepatitis C virus; conditions: Hepatitis C virus, 72 h, replicon-containing cells cultured with test compound for up to 3 days
Summary of the method: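 IC50 values mostly reflect the drop in replicon RNA, though Fluc reporter signal may also be used. Compound incubated with cells carrying the bicistronic replicon for as long as 3 days; interferon served as positive control.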

Compound: NC(=O)c1c(-c2ccc(S(=O)(=O)NC3(C(F)(F)F)CC3)cc2)n(C2CCCC2)c2ncc(C(F)(F)F)cc12 [Cpd 408, 1-cyclopentyl-5-(trifluoromethyl)-2-(4-{[1-(trifluoromethyl)cyclopropyl]sulfamoyl}phenyl)-1H-pyrrolo[2,3-b]pyridine-3-carboxamide]
- IC50 [1]: < 0.5 µM
- melting point: 277 to 279 °C

Compound: C[C@H](NS(=O)(=O)c1ccc(-c2c(C(N)=O)c3cc(C(F)(F)F)cnc3n2C2CCCC2)nc1)C(F)(F)F [Cpd 409, 1-cyclopentyl-5-(trifluoromethyl)-2-(5-{[(2S)-1,1,1-trifluoropropan-2-yl]sulfamoyl}pyridin-2-yl)-1H-pyrrolo[2,3-b]pyridine-3-carboxamide]
- IC50 [1]: < 0.5 µM
- melting point: 261 to 263 °C

Compound: CCc1cnc2c(c1)c(C#N)c(-c1ccc(S(=O)(=O)N[C@@H](C)C(F)(F)F)cn1)n2-c1cnccn1 [Cpd 411, 6-[3-cyano-5-ethyl-1-(pyrazin-2-yl)-1H-pyrrolo[2,3-b]pyridin-2-yl]-N-[(2S)-1,1,1-trifluoropropan-2-yl]pyridine-3-sulfonamide]
- IC50 [1]: < 0.5 µM
- melting point: 195 to 200 °C

Compound: CCc1cnc2c(c1)c(C#N)c(-c1ccc(S(=O)(=O)N[C@@H](C)C(F)(F)F)cn1)n2-c1cc(F)ccn1 [Cpd 412, 6-[3-cyano-5-ethyl-1-(4-fluoropyridin-2-yl)-1H-pyrrolo[2,3-b]pyridin-2-yl]-N-[(2S)-1,1,1-trifluoropropan-2-yl]pyridine-3-sulfonamide]
- IC50 [1]: < 0.5 µM
- melting point: 201 to 205 °C

Compound: CCc1cnc2c(c1)c(C#N)c(-c1ccc(S(=O)(=O)N[C@@H](C)C(F)(F)F)cn1)n2-c1ccccc1 [Cpd 413, 6-(3-cyano-5-ethyl-1-phenyl-1H-pyrrolo[2,3-b]pyridin-2-yl)-N-[(2S)-1,1,1-trifluoropropan-2-yl]pyridine-3-sulfonamide]
- IC50 [1]: < 0.5 µM
- melting point: 135 to 140 °C

Compound: CCc1cnc2c(c1)c(C#N)c(-c1ccc(S(=O)(=O)N[C@@H](C)C(F)(F)F)cn1)n2-c1ccccn1 [Cpd 414, 6-[3-cyano-5-ethyl-1-(pyridin-2-yl)-1H-pyrrolo[2,3-b]pyridin-2-yl]-N-[(2S)-1,1,1-trifluoropropan-2-yl]pyridine-3-sulfonamide]
- IC50 [1]: < 0.5 µM
- melting point: 190 to 195 °C

Compound: C[C@H](NS(=O)(=O)c1ccc(-c2c(C#N)c3cc(C(F)(F)F)cnc3n2C2CCCCC2)nc1)C(F)(F)F [Cpd 415, 6-[3-cyano-1-cyclohexyl-5-(trifluoromethyl)-1H-pyrrolo[2,3-b]pyridin-2-yl]-N-[(2S)-1,1,1-trifluoropropan-2-yl]pyridine-3-sulfonamide]
- IC50 [1]: < 0.5 µM
- melting point: 204 to 206 °C

Compound: C[C@H](NS(=O)(=O)c1ccc(-c2c(C#N)c3cc(C(F)(F)F)cnc3n2C2CCCCC2)cc1)C(F)(F)F [Cpd 416, 4-[3-cyano-1-cyclohexyl-5-(trifluoromethyl)-1H-pyrrolo[2,3-b]pyridin-2-yl]-N-[(2S)-1,1,1-trifluoropropan-2-yl]benzenesulfonamide]
- IC50 [1]: < 0.5 µM
- melting point: 190 to 192 °C

Compound: CC(C)(NS(=O)(=O)c1ccc(-c2c(C#N)c3cc(C(F)(F)F)cnc3n2C2CCCCC2)nc1)C(F)(F)F [Cpd 417, 6-[3-cyano-1-cyclohexyl-5-(trifluoromethyl)-1H-pyrrolo[2,3-b]pyridin-2-yl]-N-(1,1,1-trifluoro-2-methylpropan-2-yl)pyridine-3-sulfonamide]
- IC50 [1]: < 0.5 µM
- melting point: 177 to 179 °C

Compound: CC(C)(NS(=O)(=O)c1ccc(-c2c(C#N)c3cc(C(F)(F)F)cnc3n2C2CCCCC2)cc1)C(F)(F)F [Cpd 418, 4-[3-cyano-1-cyclohexyl-5-(trifluoromethyl)-1H-pyrrolo[2,3-b]pyridin-2-yl]-N-(1,1,1-trifluoro-2-methylpropan-2-yl)benzenesulfonamide]
- IC50 [1]: < 0.5 µM
- melting point: 203 to 205 °C

Compound: N#Cc1c(-c2ccc(S(=O)(=O)NC3(C(F)(F)F)CC3)cn2)n(C2CCCCC2)c2ncc(C(F)(F)F)cc12 [Cpd 419, 6-[3-cyano-1-cyclohexyl-5-(trifluoromethyl)-1H-pyrrolo[2,3-b]pyridin-2-yl]-N-[1-(trifluoromethyl)cyclopropyl]pyridine-3-sulfonamide]
- IC50 [1]: < 0.5 µM
- melting point: 192 to 193 °C

Compound: N#Cc1c(-c2ccc(S(=O)(=O)NC3(C(F)(F)F)CC3)cc2)n(C2CCCCC2)c2ncc(C(F)(F)F)cc12 [Cpd 420, 4-[3-cyano-1-cyclohexyl-5-(trifluoromethyl)-1H-pyrrolo[2,3-b]pyridin-2-yl]-N-[1-(trifluoromethyl)cyclopropyl]benzenesulfonamide]
- IC50 [1]: < 0.5 µM
- melting point: 195 to 197 °C

Compound: CC1(NS(=O)(=O)c2ccc(-c3c(C#N)c4cc(C(F)(F)F)cnc4n3C3CCCCC3)cc2)CC1 [Cpd 421, 4-[3-cyano-1-cyclohexyl-5-(trifluoromethyl)-1H-pyrrolo[2,3-b]pyridin-2-yl]-N-(1-methylcyclopropyl)benzenesulfonamide]
- IC50 [1]: < 0.5 µM
- melting point: 173 to 175 °C

Compound: CC(C)(C)NS(=O)(=O)c1ccc(-c2c(C#N)c3cc(C(F)(F)F)cnc3n2C2CCCCC2)cc1 [Cpd 422, N-tert-butyl-4-[3-cyano-1-cyclohexyl-5-(trifluoromethyl)-1H-pyrrolo[2,3-b]pyridin-2-yl]benzenesulfonamide]
- IC50 [1]: < 0.5 µM
- melting point: 176 to 178 °C

Compound: C[C@@H](NS(=O)(=O)c1ccc(-c2c(C#N)c3cc(C(F)(F)F)cnc3n2C2CCCCC2)cc1)C(F)(F)F [Cpd 423, 4-[3-cyano-1-cyclohexyl-5-(trifluoromethyl)-1H-pyrrolo[2,3-b]pyridin-2-yl]-N-[(2R)-1,1,1-trifluoropropan-2-yl]benzenesulfonamide]
- IC50 [1]: < 0.5 µM
- melting point: 185 to 187 °C

Compound: CC(C)(C)S(=O)(=O)Nc1ccc(-c2c(C#N)c3cc(C(F)(F)F)cnc3n2C2CCCCC2)cc1 [Cpd 424, N-{4-[3-cyano-1-cyclohexyl-5-(trifluoromethyl)-1H-pyrrolo[2,3-b]pyridin-2-yl]phenyl}-2-methylpropane-2-sulfonamide]
- IC50 [1]: < 0.5 µM
- melting point: 245 to 247 °C

Compound: CC(C)S(=O)(=O)Nc1ccc(-c2c(C#N)c3cc(C(F)(F)F)cnc3n2C2CCCCC2)cc1 [Cpd 425, N-{4-[3-cyano-1-cyclohexyl-5-(trifluoromethyl)-1H-pyrrolo[2,3-b]pyridin-2-yl]phenyl}propane-2-sulfonamide]
- IC50 [1]: < 0.5 µM
- melting point: 228 to 230 °C

Compound: CC1(S(=O)(=O)Nc2ccc(-c3c(C#N)c4cc(C(F)(F)F)cnc4n3C3CCCCC3)cc2)CC1 [Cpd 426, N-{4-[3-cyano-1-cyclohexyl-5-(trifluoromethyl)-1H-pyrrolo[2,3-b]pyridin-2-yl]phenyl}-1-methylcyclopropanesulfonamide]
- IC50 [1]: < 0.5 µM
- melting point: 255 to 256 °C

Compound: N#Cc1c(-c2ccc(NS(=O)(=O)C3CC3)cc2)n(C2CCCCC2)c2ncc(C(F)(F)F)cc12 [Cpd 427, N-{4-[3-cyano-1-cyclohexyl-5-(trifluoromethyl)-1H-pyrrolo[2,3-b]pyridin-2-yl]phenyl}cyclopropanesulfonamide]
- IC50 [1]: < 0.5 µM
- melting point: 225 to 227 °C

Compound: N#Cc1c(-c2ccc(NS(=O)(=O)C3CCC3)cc2)n(C2CCCCC2)c2ncc(C(F)(F)F)cc12 [Cpd 428, N-{4-[3-cyano-1-cyclohexyl-5-(trifluoromethyl)-1H-pyrrolo[2,3-b]pyridin-2-yl]phenyl}cyclobutanesulfonamide]
- IC50 [1]: < 0.5 µM
- melting point: 234 to 236 °C
